Data on 24 molecules can be found in patent US20030130272A1, “Anthracene derivatives as anti-cancer agents” (priority 1999, published 2003).

Counter-ions that a name gives are not always drawn.

For assay [1], the system named is MAC 15A cells. Kind of assay: In vitro activity against MAC 15A adenocarcinoma (MTT assay). Type of assay: cell-based. As to conditions: MAC15A colon adenocarcinoma, 96 hours continuous exposure. How it is done:
MAC 15A cells were grown in RPMI 1640 medium supplemented with 10% foetal calf serum containing a 1% antibiotic mixture under standard tissue culture conditions and were maintained at 37° C. in a humidified atmosphere of 5% CO2 in air. Cells were harvested from a stock culture in exponential growth phase and plated in 96-well flat-bottomed plates to achieve a final density of 2×10^3 cells per well. After 2 hours incubation medium was replaced with either fresh medium containing 0.5% DMSO (control) or medium containing test compound dissolved in DMSO at a concentrations from 10 mM to 1 nM. Chemosensitivity was assessed using MTT assay by the method of Plumb et al Cancer Research 49 (1989) 4435-4440.
Following 96 hours continuous exposure to drug at 37° C. cells were incubated with fresh drug-free medium immediately prior to addition of MTT solution (5 mg/ml). Medium and MTT were removed after 4 hours and 150 μl of DMSO was added. For each plate the absorbance of the resulting solution was measured at the analytical wavelength 550 nm for formnazan product, using a Labsystem Mutiskan. IC50 values were obtained from growth curves of drug concentration against % survival and are expressed in μm.
In vitro Cytotoxicity of Spacer Limked Anthraquinone Peptide Conjugates on MAC15A Colon Adenocarcinoma
(Formazan colour is commonly taken as a measure of viable cells.)

For assay [2], the target named is T1, topo I (Homo sapiens, UniProt P11387).
T1 sequence (P11387 1-765): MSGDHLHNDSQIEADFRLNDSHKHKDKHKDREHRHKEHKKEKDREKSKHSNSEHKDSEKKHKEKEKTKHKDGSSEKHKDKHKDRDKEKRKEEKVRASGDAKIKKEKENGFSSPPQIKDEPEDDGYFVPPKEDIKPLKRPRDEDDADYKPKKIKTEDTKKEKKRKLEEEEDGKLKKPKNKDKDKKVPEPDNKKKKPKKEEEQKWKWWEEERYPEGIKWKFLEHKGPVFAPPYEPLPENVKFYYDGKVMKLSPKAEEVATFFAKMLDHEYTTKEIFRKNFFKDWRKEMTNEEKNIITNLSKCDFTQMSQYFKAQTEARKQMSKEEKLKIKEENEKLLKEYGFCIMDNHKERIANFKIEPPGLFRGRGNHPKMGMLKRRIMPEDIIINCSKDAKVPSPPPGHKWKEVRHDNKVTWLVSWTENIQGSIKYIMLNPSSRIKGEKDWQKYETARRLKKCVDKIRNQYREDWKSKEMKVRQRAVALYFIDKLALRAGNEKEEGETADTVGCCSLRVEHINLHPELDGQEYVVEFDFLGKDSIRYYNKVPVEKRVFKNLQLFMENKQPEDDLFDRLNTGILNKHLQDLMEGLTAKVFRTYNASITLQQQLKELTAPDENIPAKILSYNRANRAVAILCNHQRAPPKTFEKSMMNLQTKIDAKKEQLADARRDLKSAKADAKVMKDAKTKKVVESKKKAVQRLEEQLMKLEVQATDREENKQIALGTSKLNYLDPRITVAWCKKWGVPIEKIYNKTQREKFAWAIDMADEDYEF
Description: Inhibition of topoisomerase I mediated relaxation of pBR322 DNA. Type of assay: biochemical.

The term IC50 denotes the concentration that inhibits the measured activity by half. Read a high IC50 as weaker potency in that assay. Molecule `C[C@@H](N)C(=O)NC1CCC(Nc2cccc3c2C(=O)c2ccccc2C3=O)CC1` (stereo partly drawn) [Example 34, (2R)-2-amino-N-{4-[(9,10-dioxoanthryl)amino]cyclohexyl}propanamide trifluoroacetate salt] displayed an IC50 in assay [1] of 3.9 µM. For “((2S)pyrrolidine-2-yl)-N-[3-(4-{3-[(9,10-dioxoanthryl)amino]propyl}-piperazinyl)propyl]carboxamide trifluoroacetate salt [Example 57]”, in assay [1], inhibition was half-maximal at 4.6 µM (IC50). The “DNA-topoisomerase activity: inhibition of topo I relaxation” value (“DNA-topoisomerase activity: inhibition” for short) in assay [2] (at 25 μM) is listed as “PARTIAL inhibition”; in assay [2] (at 50 μM), “COMPLETE”. As for `N[C@H](Cc1ccccc1)C(=O)NCCCN1CCN(CCCNc2cccc3c2C(=O)c2ccccc2C3=O)CC1` [Example 61, (2R)-2-amino-N-[3-(4-{3-[(9,10-dioxoanthryl)amino]propyl}-piperazinyl)propyl]-3-phenylpropanamide trifluoroacetate salt], in assay [1], the IC50 amounted to 3.8 µM.

With `NCCCC[C@H](N)C(=O)N1CCN(c2cccc3c2C(=O)c2ccccc2C3=O)CC1` [Example 79, 1-[4-((2S)-2-6-diaminohexanoyl)piperazinyl]anthracene-9,10-dione bis trifluoroacetate salt], the IC50 in assay [1] was 28 µM.

In assay [1], `C[C@@H](N)C(=O)NCCCN1CCN(CCCNc2cccc3c2C(=O)c2ccccc2C3=O)CC1` [Example 53, (2R)-2-amino-N-[3-(4-{3-[(9,10-dioxoanthryl)amino]propyl}-piperazinyl)propyl]propanamide trifluoroacetate salt] gave a half-inhibitory concentration (IC50) of 4.9 µM. For `C[C@H](N)C(=O)NC1CCCCC1Nc1cccc2c1C(=O)c1ccccc1C2=O.O=C(O)C(F)(F)F` (stereo partly drawn) [Example 66, (2S)-2-amino-N-{2-[(9,10-dioxoanthryl)amino]cyclohexyl}propanamide trifluoroacetate salt], in assay [1], the IC50 was found to be 6.7 µM. In addition, the “DNA-topoisomerase activity: inhibition” value in assay [2] (at 10 μM) is “COMPLETE inhibition at 10 μM; concentrations”; in assay [2] (concentrations above 10 μM) it was “above this value antagonised inhibitory activity”. `N[C@H](Cc1ccccc1Cl)C(=O)NC1CCC(Nc2cccc3c2C(=O)c2ccccc2C3=O)CC1` (stereo partly drawn) [Example 46, (2R)-2-amino-N-{4-[(9,10-dioxoanthryl)amino]cyclohexyl}-3-(2-chloro-phenyl)propanamide trifluoroacetate salt] had an IC50 in assay [1] of 4.1 µM. On to `NCC(=O)NC1CCC(Nc2cccc3c2C(=O)c2ccccc2C3=O)CC1` (centres unmarked) [Example 30, 2-amino-N-{4-[(9,10-dioxoanthryl)amino]cyclohexyl}acetamide trifluoroacetate salt], for which the IC50 in assay [1] came to 6 µM. For `N[C@@H](Cc1ccc(O)cc1)C(=O)NCCCN1CCN(CCCNc2cccc3c2C(=O)c2ccccc2C3=O)CC1.O=C(O)C(F)(F)F` [Example 63, (2S)-2-amino-N-[3-(4-{3-[(9,10-dioxoanthryl)amino]propyl}-piperazinyl)propyl]-3-(4-hydroxyphenyl)propanamide trifluoroacetate salt], the “DNA-topoisomerase activity: inhibition” value in assay [2] (at 25 μM) was “PARTIAL inhibition”; in assay [2] (at 50 μM), “COMPLETE”. In the case of `C[C@H](NC(=O)OC(C)(C)C)C(=O)N1CCN(c2cccc3c2C(=O)c2ccccc2C3=O)CC1` [Example 16, 1-(1-N-tertiarybutoxycarbonyl-L-alanylpiperazinyl)anthracene-9,10-dione], the “DNA-topoisomerase activity: inhibition” value in assay [2] (between 25-100 μM) was “NO inhibition between 25-100 μM”.

`C[C@H](N)C(=O)NC1CCC(Nc2cccc3c2C(=O)c2ccccc2C3=O)CC1` (stereo partly drawn) [Example 32, (2S)-2-amino-N-{4-[(9,10-dioxoanthryl)amino]cyclohexyl}propanamide trifluoroacetate salt] yielded an IC50 in assay [1] of 4.4 µM.

Take `N[C@@H](Cc1ccc(Cl)cc1)C(=O)NC1CCC(Nc2cccc3c2C(=O)c2ccccc2C3=O)CC1` (stereo partly drawn) [Example 94, (2S)-2-amino-N-{4-[(9,10-dioxoanthryl)amino]cyclohexyl}-3-(4-chlorophenyl)propanamide trifluoroacetate salt]: half-maximal inhibition in assay [1] (IC50) was put at 1 µM. The same measure, in the same setting: to `CC(C)[C@H](N)C(=O)NC1CCC(Nc2cccc3c2C(=O)c2ccccc2C3=O)CC1` (stereo partly drawn) [Example 36, (2S)-2-amino-N-{4-[(9,10-dioxoanthryl)amino]cyclohexyl}-3-methylbutanamide trifluoroacetate salt] belongs 4.5 µM; to `N[C@@H](Cc1ccccc1Cl)C(=O)NC1CCC(Nc2cccc3c2C(=O)c2ccccc2C3=O)CC1` (stereo partly drawn) [Example 44, (2S)-2-amino-N-{4-[(9,10-dioxoanthryl)amino]cyclohexyl}-3-(2-chlorophenyl)propanamide trifluoroacetate salt], 3 µM. In turn, `NCCC(=O)NC1CCCCC1Nc1cccc2c1C(=O)c1ccccc1C2=O` (centres unmarked) [Example 68, 3-amino-N-{2-[(9,10-dioxoanthryl)amino]cyclohexyl}propanamide trifluoroacetate salt] showed an IC50 in assay [1] of 6.2 µM.

In assay [1], `NCC(=O)Nc1ccc(Nc2cccc3c2C(=O)c2ccccc2C3=O)cc1` [Example 70, 2-amino-N-{4-[(9,10-dioxoanthryl)amino]phenyl}acetamide trifluoroacetate salt] registered an IC50 of 2.2 µM.

As for `C[C@H](N)C(=O)N1CCN(c2cccc3c2C(=O)c2cccc(N4CCN(C(=O)[C@H](C)N)CC4)c2C3=O)CC1` [Example 23, 1,5-bis(1-L-alanylpiperazinyl)anthracene-9,10-dione trifluoroacetate salt], half-maximal inhibition in assay [1] (IC50) was put at 15 µM.

In turn, `O=C1c2ccccc2C(=O)c2c(NC3CCC(NC(=O)[C@@H]4CCCN4)CC3)cccc21` (stereo partly drawn) [Example 40, ((2S)pyrrolidin-2-yl)-N-{4-[(9,10-dioxoanthryl)amino]cyclohexyl}-carboxamide trifluoroacetate salt] gave a half-maximal inhibitory concentration (IC50) in assay [1] of 4.2 µM.

In assay [1], `CC(C)[C@@H](N)C(=O)NC1CCC(Nc2cccc3c2C(=O)c2ccccc2C3=O)CC1` (stereo partly drawn) [Example 38, (2R)-2-amino-N-{4-[(9,10-dioxoanthryl)amino]cyclohexyl}-3-methylbutanamide trifluoroacetate salt] came in with a half-maximal inhibitory concentration (IC50) of 4.2 µM. As to `NCC(=O)NCCCN1CCN(CCCNc2cccc3c2C(=O)c2ccccc2C3=O)CC1.O=C(O)C(F)(F)F.O=C(O)C(F)(F)F.O=C(O)C(F)(F)F` [Example 49, 2-amino-N-[3-(4-{3-[(9,10-dioxoanthryl)amino]propyl}piperazinyl)-propyl]acetamide tri-trifluoroacetate salt], the “DNA-topoisomerase activity: inhibition” value is recorded as “PARTIAL inhibition” in assay [2] (at 25 μM) and “COMPLETE” in assay [2] (at 50 μM). In the case of `CC(C)[C@H](N)C(=O)NCCCN1CCN(CCCNc2cccc3c2C(=O)c2ccccc2C3=O)CC1.O=C(O)C(F)(F)F` [Example 55, (2S)-2-amino-N-[3-(4-{3-[(9,10-dioxoanthryl)amino]propyl}-piperazinyl)propyl]-3-methylbutanamide trifluoroacetate salt], the “DNA-topoisomerase activity: inhibition” value was “PARTIAL inhibition” in assay [2] (at 25 μM) and “COMPLETE” in assay [2] (at 50 μM). Consider `O=C1c2ccccc2C(=O)c2c1cccc2N1CCC[C@H]1C(=O)O` [Example 6, (2S)-1-(9,10-dioxoanthryl)prrolidine-2-carboxylic acid], for which the “DNA-topoisomerase activity: inhibition” value in assay [2] (at 100 μM) is given as “PARTIAL inhibition at 100 μM”. Consider `C[C@H](N)C(=O)OC[C@@H]1CCCN1c1cccc2c1C(=O)c1ccccc1C2=O` [Example 13, [(2S)]-1-(9,10-dioxoanthryl)pyrrolidin-2-yl]methyl (2S)-2-aminopropanoate trifluoroacetate salt], for which the IC50 in assay [1] worked out at 22 µM. Molecule `C[C@H](N)C(=O)OC1CCN(c2cccc3c2C(=O)c2ccccc2C3=O)CC1.O=C(O)C(F)(F)F` [Example 11, 1-(9,10-dioxoanthryl)-4-piperidyl-(2S)-2-aminopropanoate trifluoroacetate salt] yielded an IC50 in assay [1] of 14 µM. In addition, the “DNA-topoisomerase activity: inhibition” value in assay [2] (between 25-100 μM) is reported as “NO inhibition between 25-100 μM”.
